Read-outs that look alike come from different tables or passages of the source.
How the values were obtained:
Ba/F3 FIG-ROS cells [1] = target: T1, Ba/F3 FIG-ROS cells (Homo sapiens, UniProt P08922); test: Cell viability (MTS) assay, Ba/F3 FIG-ROS; type: cell-based
T1 construct: fused on or other part: GFP is co-expressed from an IRES in pMIG and is not fused; Q9HD26 (Golgi-associated PDZ and coiled-coil motif-containing protein)
Excerpt: Ba/F3 cell lines were maintained at densities of 0.5×10^6 to 1.5×10^6 per ml of media. FIG-ROS and SLC-ROS Ba/F3 lines were created by infecting the parental Ba/F3 with retrovirus expressing either human FIG-ROS-S (indicated FIG-ROS herein) or SLC-ROS-S (indicated SLC-ROS herein). Stable transfectant lines were sorted for GFP expression on a FACS Aria® flow cytometer. Cells were counted daily using Guava ViaCount® reagent and Guava Personal Cell Analysis® flow cytometer. […] Early passage NIH3T3 cells were infected with retrovirus expressing either FIG-ROS or SLC-ROS and sorted for GFP expression as described above for Ba/F3 cells. […] This media is referred to as RPMI-10% FBS herein.
The FIG-ROS-S (FIG-ROS) fusion protein has been reported in non-small cell lung cancers (NSCLC), glioblastomas, and cholangiocarcinomas.

Ba/F3 SLC-ROS cells [2] = target: T2, Ba/F3 SLC-ROS cells (Homo sapiens, UniProt P08922); test: Cell viability (MTS) assay, Ba/F3 SLC-ROS; type: cell-based; details: 72 hours, read-out: IC50 (the source's name)
T2 construct: SLC-ROS-S (SLC-ROS) was cloned from cDNA made from HCC78 cells; fused on or other part: GFP is co-expressed from an IRES in pMIG and is not fused; O95436 (Sodium-dependent phosphate transport protein 2B)
Protocol: (§1) The parental Ba/F3 cell line was cultured in RPMI 1640 medium with 10% FBS, L-glutamine, penicillin/streptomycin and 15% WEHI-conditioned media. Ba/F3 cell lines were maintained at densities of 0.5×10^6 to 1.5×10^6 per ml of media. FIG-ROS and SLC-ROS Ba/F3 lines were created by infecting the parental Ba/F3 with retrovirus expressing either human FIG-ROS-S (indicated FIG-ROS herein) or SLC-ROS-S (indicated SLC-ROS herein). Stable transfectant lines were sorted for GFP expression on a FACS Aria® flow cytometer. Cells were counted daily using Guava ViaCount® reagent and Guava Personal Cell Analysis® flow cytometer. […] Early passage NIH3T3 cells were infected with retrovirus expressing either FIG-ROS or SLC-ROS and sorted for GFP expression as described above for Ba/F3 cells. HCC78 cells were cultured in RPMI 1640 medium with 10% FBS, L-glutamine, and penicillin/streptomycin. This media is referred to as RPMI-10% FBS herein.
[…]. The Ba/F3 parental line was also tested. (O'Dwyer M E and Druker B J, Lancet Oncology 1, 207-211 (2000); Walters D K et al, Cancer Cell 10, 65-75 (2006); and Heukamp L C et al, Science Translational Medicine 4, 141ra191 (2012); […].

HCC78 cells [3] = test: Cell viability (MTS) assay, HCC78; type: cell-based, human; details: Homo sapiens, 72 hour exposure, read-out: IC50 HCC78 cell growth
Protocol: as §1

Ba/F3 FIG-ROS cells [4] = target: T1, Ba/F3 FIG-ROS cells; test: Apoptosis induction (Annexin V / 7-AAD), Ba/F3 FIG-ROS; type: cell-based; details: 15 nM, 48 hours
Protocol: (§2) FIG. 5A is a set of three bar graphs depicting the induction of apoptosis in Ba/F3 FIG-ROS, Ba/F3 SLC-ROS and Ba/F3 ALK F1174L cells after 48 hours of treatment with the indicated doses of the indicated compounds. The number of cells that were Annexin V and 7-AAD positive after inhibitor treatment was normalized to number of cells staining positive with these markers with vehicle treatment (basal). A minimum of 2000 cells were counted per condition. Rate of apoptosis is shown as fold over basal. Basal apoptosis in Ba/F3 FIG-ROS, Ba/F3 SLC-ROS and Ba/F3 ALK F1174 cells was 3.6%, 2.8% and 1.2% respectively.

Ba/F3 SLC-ROS cells [5] = target: T2, Ba/F3 SLC-ROS cells; test: Apoptosis induction (Annexin V / 7-AAD), Ba/F3 SLC-ROS; type: cell-based; details: 15 nM, 48 hours
Protocol: as §2

HCC78 cells [6] = test: HCC78 colony formation; type: cell-based, human; details: 10 days, FIG. 1F
Excerpt: FIG. 1F bottom panel is a bar graph depicting the number of colonies observed on the plates from FIG. 1F top panel. Where indicated, **=p<0.01 and ***=p<0.001 by Student's t-test.

HCC4011 cells = test: Cell viability assay, HCC4011; type: cell-based, human; details: HCC4011 cells (activated EGFR), FIG. 6B
Protocol: IC50 was determined from non-linear regression curve fit analysis of the dose response curves.

NIH3T3 FIG-ROS cells = test: Soft agar colony formation, NIH3T3 FIG-ROS; type: cell-based; details: at lower doses than crizotinib
Excerpt: The bottom panels are bar graphs indicating the number of colonies formed from the plates depicted in the top panels. The values indicate average colony number±SEM from 4 independent wells.

[7] = tested on: FIG-ROS cholangiocarcinoma tumor cells; test: Anchorage-independent colony formation in soft agar, FIG-ROS cholangiocarcinoma cells; type: cell-based, murine; details: dose dependent
Excerpt: […]. The values indicate the mean and the error bars indicate the standard error of the mean of 3 independent wells.
. The inhibition was dose dependent (FIG. 2B). […].

[8] = established, reported in the literature; read-out: steady state maximum plasma concentration Cmax; cited from earlier work
SLC-ROS = SLC-ROS (Homo sapiens, UniProt P08922); test: Immunoblot of NIH3T3 SLC-ROS lysates; type: cell-based; design: SLC34A2 N-terminal portion, fusion partner; expressed in transfected cells; host or cells: Ba/F3 (A15) and NIH3T3 (A25), retroviral pMIG; the other entry of the earlier key: SLC34A2 (O95436, Sodium-dependent phosphate transport protein 2B); details: NIH3T3 SLC-ROS cells, 1 hour, at lower doses than crizotinib
Protocol: as §1

T1 sequence (P08922 whole entry, change not shown, the tested form may be a part): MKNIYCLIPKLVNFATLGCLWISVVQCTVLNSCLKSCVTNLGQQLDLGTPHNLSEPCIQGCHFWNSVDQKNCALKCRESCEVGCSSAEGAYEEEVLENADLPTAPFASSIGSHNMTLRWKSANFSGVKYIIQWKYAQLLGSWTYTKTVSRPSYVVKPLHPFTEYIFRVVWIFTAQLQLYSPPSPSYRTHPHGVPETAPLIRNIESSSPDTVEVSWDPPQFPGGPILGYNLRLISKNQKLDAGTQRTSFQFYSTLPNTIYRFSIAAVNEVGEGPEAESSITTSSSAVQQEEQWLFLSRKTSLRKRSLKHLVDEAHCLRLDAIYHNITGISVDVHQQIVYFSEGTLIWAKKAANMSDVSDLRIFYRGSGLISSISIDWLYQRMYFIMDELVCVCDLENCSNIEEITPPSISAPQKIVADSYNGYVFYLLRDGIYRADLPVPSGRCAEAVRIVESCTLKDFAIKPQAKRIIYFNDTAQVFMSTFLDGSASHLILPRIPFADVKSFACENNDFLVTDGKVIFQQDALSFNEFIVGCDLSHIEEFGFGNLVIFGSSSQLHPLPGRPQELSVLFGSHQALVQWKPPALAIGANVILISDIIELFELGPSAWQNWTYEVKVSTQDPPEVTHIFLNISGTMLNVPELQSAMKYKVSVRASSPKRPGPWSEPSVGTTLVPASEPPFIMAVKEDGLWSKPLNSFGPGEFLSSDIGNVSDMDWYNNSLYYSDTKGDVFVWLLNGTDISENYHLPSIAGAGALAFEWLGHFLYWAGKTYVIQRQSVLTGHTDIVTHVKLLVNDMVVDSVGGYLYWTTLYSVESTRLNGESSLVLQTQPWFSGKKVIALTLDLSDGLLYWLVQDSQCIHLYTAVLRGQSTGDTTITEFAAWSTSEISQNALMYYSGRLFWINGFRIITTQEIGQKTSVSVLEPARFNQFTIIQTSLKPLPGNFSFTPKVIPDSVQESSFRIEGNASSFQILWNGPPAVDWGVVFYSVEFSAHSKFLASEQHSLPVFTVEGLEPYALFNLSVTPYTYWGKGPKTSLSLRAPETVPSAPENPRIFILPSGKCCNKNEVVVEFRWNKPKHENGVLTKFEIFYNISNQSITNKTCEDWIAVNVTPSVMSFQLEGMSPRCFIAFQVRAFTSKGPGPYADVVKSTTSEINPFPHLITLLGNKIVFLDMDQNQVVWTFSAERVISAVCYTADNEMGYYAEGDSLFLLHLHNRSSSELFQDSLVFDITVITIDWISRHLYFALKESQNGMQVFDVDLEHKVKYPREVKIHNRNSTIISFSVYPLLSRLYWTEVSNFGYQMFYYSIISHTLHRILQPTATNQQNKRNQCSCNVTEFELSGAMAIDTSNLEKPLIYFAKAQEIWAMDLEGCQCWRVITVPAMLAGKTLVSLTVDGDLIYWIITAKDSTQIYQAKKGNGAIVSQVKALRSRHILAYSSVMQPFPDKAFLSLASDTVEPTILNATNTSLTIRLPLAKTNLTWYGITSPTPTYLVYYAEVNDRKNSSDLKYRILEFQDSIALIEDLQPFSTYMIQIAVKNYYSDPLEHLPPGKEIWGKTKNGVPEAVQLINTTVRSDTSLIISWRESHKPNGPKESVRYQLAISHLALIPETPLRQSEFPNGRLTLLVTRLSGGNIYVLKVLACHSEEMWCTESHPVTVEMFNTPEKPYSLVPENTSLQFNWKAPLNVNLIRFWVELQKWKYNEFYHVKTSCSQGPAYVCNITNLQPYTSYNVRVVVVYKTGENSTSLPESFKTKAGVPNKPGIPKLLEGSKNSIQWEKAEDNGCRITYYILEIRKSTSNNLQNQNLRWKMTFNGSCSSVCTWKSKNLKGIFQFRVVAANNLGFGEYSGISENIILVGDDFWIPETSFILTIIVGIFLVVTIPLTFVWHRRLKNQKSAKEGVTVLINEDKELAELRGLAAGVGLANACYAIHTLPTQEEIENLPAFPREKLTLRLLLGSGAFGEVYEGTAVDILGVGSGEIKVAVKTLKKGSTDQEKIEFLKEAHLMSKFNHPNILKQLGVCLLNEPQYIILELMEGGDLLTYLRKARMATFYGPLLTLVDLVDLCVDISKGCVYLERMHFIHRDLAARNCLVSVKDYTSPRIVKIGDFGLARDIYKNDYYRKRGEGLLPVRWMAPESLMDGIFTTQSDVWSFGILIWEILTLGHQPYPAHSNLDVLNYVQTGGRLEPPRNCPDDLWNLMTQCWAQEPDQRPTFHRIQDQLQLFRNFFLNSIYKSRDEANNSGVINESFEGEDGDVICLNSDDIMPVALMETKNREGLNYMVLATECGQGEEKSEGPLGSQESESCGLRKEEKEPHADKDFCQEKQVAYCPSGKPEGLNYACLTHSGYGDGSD
T2 sequence (P08922 whole entry, change not shown, the tested form may be a part): as above
Sequence of SLC-ROS (P08922 with tags, fused parts or gaps): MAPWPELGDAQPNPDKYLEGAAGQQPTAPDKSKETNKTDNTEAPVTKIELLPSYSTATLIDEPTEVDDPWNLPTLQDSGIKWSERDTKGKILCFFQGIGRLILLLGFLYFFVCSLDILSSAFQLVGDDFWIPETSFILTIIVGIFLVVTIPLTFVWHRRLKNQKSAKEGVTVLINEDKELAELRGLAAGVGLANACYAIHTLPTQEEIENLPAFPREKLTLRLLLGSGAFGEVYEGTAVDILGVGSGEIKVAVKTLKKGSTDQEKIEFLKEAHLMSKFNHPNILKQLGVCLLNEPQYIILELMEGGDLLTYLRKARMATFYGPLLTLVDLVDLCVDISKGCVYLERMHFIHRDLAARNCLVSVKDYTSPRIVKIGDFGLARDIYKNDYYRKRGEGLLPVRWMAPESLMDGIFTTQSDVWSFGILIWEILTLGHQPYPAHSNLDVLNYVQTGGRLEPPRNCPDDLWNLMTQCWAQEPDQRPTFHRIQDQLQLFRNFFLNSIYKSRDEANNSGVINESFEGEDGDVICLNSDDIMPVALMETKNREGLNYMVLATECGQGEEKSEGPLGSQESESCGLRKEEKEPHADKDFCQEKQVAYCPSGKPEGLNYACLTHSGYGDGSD

For `COc1cc2c(Oc3ccc(NC(=O)C4(C(=O)Nc5ccc(F)cc5)CC4)cc3F)ccnc2cc1OCCCN1CCOCC1` [foretinib, N1′-[3-fluoro-4-[[6-methoxy-7-(3-morpholinopropoxy)-4-quinolyl]oxy]phenyl]-N1-(4-fluorophenyl)cyclopropane-1,1-dicarboxamide], the GI50 (Ba/F3 FIG-ROS cells [1]; Table 3, mutant: None (Ba/F3 FIG-ROS), nM, read-out: IC50 (the source's name)) was 2.03 nM, the GI50 (Ba/F3 FIG-ROS cells [1]; read-out: IC50 (50% growth inhibitory concentration), Ba/F3 FIG-ROS cells, 72 hours, MTS) was 2 nM and the GI50 (Ba/F3 FIG-ROS cells [1]; read-out: IC50 (50% growth inhibitory concentration), Ba/F3 FIG-ROS cells, 72 hours, MTS, listed as Foretinib) was 2.2 nM. The GI50 (Ba/F3 SLC-ROS cells [2]) was 10 nM, the IC50 (HCC78 cells [3]) was 425 nM and the apoptosis induction (Ba/F3 FIG-ROS cells [4]) was “induced apoptosis”. The apoptosis induction (Ba/F3 SLC-ROS cells [5]) was “induced apoptosis”, the HCC78 colony formation (HCC78 cells [6]) was “more potently inhibited by foretinib than crizotinib” and the “sensitivity of cell growth” value (HCC4011 cells) was “relatively insensitive”. For the same molecule, the anchorage-independent colony formation (NIH3T3 FIG-ROS cells) was “strongly suppressed”, the “anchorage-independent colonies in soft agar” value [7] was “inhibited” and the Cmax [8] was 340 nM. For the same molecule, the SLC-ROS phosphorylation (SLC-ROS) was “strongly suppressed”.

Reference: patent US20140243332A1, “METHODS OF TREATING CANCERS CHARACTERIZED BY ABERRENT ROS1 ACTIVITY” (Oregon Health & Science University, priority 2013, published 2014)
